Patent US7794760B2, “Herbal mixture extract of Pleurotus eryngii, Acanthopanacis Cortex and Notoginseng Radix and a composition comprising the same for prevention and treatment of periodontitis” (Oscotec Inc., priority 2005, dated 2010)

Tested on: OPG (osteoprotegerin)
Assay: OPG (osteoprotegerin) expression in MG-63 cells, OPG ELISA of supernatant
Type: cell-based, human
Details: positive control, 20 mM
Protocol: The following three types of cells were used to investigate the effect of the herbal mixture extract or each independent herbal extract of the present invention on the proliferation of osteoblasts. A human osteosarcoma derived cell line MG-63 (ATCC No, CRL-1427) and a mouse muscle derived cell line C2C12 (ATCC No. CRL-1772) were distributed from American Type Culture Collection (ATCC, USA). The cells were cultured in DMEM (Gibco, BRL, USA) supplemented with 10% FBS (fetal bovine serum) in a 37° C. 5% CO2 incubator with 100% humidity.
MG-63 cell culture medium having approximately at the density of 10^6 cells/20 ml was removed from 100 mm cell culture dish. The dish was washed with 5 ml of DPBS (Dulbeco's modified phosphate buffered saline). The buffer was removed and 0.5 ml of trypsin-EDTA was spread on the culture dish, which stood in a CO2 incubator for one minute to take the cells off. The cells were put in 5 ml of DMEM supplemented with 10% FBS and mixed well. […] The numbers of cells were counted by haemacytometer and then distributed into a96-well plate at the concentration of 10^4 cells/well. […]
To increase reliability of the test results, positive control was treated with 20 mM CaCl2 to induce 2˜5 fold higher expression of OPG than in negative control. […] OPG ELISA kit (OCT) was used and optical density was measured at 450 nm. […]

In the case of [Ca+2].[Cl-].[Cl-] [CaCl2], the “expression of OPG versus negative control” value is reported as 2˜5 fold.
